Like-named read-outs stand apart in the source and are kept apart here.
Tests used:
AChE [1] = target: T1, AChE (Electrophorus electricus, UniProt O42275); assay: Cholinesterase inhibition assay; type: biochemical, electric eels; settings: for fold decrease in potency against AChE: compared to the most potent compound (a11)
MAO-A [2] = target: T2, MAO-A (Mus musculus, UniProt Q64133); assay: Monoamine oxidase A inhibition assay; type: biochemical, Mice; settings: compared to (a3)
T2 sequence (Q64133 1-526): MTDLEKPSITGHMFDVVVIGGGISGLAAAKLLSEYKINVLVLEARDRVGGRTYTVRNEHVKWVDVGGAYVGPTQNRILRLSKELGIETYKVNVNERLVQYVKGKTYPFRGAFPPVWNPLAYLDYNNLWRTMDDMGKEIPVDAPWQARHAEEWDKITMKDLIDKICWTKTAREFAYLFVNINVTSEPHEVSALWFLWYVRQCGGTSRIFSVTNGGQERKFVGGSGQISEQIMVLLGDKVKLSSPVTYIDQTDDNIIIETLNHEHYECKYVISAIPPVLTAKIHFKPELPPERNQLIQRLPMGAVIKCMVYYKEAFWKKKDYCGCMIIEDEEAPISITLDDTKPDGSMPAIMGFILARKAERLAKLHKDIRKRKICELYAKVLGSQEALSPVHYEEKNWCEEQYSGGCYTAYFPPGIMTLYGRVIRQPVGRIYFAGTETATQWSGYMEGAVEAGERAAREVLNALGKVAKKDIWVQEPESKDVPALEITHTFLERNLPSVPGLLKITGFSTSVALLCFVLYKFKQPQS

MAO-B [3] = target: T3, MAO-B (Mus musculus, UniProt Q8BW75); assay: Monoamine oxidase B inhibition assay; type: biochemical, Mice; settings: compared to the most potent compound (a12)
T3 sequence (Q8BW75 2-520): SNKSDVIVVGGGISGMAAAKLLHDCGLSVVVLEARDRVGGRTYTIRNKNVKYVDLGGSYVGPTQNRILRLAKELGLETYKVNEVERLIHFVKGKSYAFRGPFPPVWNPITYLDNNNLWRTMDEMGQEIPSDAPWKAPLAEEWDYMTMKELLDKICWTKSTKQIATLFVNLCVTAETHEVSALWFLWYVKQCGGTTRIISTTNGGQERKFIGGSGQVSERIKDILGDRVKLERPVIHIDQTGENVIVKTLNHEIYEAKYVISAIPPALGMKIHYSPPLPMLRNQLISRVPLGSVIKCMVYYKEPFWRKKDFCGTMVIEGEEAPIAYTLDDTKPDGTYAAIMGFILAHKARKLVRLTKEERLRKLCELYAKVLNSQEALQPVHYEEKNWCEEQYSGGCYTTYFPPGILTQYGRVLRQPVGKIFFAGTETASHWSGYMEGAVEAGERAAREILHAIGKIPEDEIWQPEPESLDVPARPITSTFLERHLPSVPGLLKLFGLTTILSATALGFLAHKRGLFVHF

MAO-A [4] = assay: Enzyme kinetic study; type: biochemical; settings: Lineweaver-Burk plot, substrate p-tyramine
BChE [5] = target: T4, BChE (Equus caballus, UniProt P81908); assay: Cholinesterase inhibition assay; type: biochemical, horse; settings: for fold decrease in activity against BChE: compared to the di-methoxy substituted compound, printed as (a5)
T4 sequence (P81908 whole entry): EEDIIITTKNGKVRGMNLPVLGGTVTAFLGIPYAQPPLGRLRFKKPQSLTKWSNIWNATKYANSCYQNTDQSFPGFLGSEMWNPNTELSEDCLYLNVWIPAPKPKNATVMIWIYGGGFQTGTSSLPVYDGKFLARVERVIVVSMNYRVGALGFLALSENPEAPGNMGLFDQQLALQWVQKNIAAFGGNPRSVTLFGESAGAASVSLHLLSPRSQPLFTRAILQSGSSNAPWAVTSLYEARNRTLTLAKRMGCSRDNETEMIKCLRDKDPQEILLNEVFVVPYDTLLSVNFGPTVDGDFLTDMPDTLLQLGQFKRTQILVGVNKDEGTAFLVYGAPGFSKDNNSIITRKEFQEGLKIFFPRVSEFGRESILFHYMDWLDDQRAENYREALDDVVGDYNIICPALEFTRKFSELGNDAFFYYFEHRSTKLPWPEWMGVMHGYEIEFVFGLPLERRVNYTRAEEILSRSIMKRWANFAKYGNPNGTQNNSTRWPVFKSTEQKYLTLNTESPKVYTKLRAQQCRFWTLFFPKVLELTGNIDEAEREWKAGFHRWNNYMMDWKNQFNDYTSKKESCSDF

AChE [6] = target: T1, AChE; assay: Enzyme kinetic study; type: biochemical; settings: Lineweaver-Burk plot, substrate ATCII
BChE [7] = target: T4, BChE; assay: Enzyme kinetic study; type: biochemical; settings: Lineweaver-Burk plot, substrate BTCII
MAO-B [8] = assay: Enzyme kinetic study; type: biochemical; settings: Lineweaver-Burk plot, substrate p-tyramine
[9] = read-out: IC50 BChE, N/A = Not active (footnote b)

T1 sequence (O42275 24-633): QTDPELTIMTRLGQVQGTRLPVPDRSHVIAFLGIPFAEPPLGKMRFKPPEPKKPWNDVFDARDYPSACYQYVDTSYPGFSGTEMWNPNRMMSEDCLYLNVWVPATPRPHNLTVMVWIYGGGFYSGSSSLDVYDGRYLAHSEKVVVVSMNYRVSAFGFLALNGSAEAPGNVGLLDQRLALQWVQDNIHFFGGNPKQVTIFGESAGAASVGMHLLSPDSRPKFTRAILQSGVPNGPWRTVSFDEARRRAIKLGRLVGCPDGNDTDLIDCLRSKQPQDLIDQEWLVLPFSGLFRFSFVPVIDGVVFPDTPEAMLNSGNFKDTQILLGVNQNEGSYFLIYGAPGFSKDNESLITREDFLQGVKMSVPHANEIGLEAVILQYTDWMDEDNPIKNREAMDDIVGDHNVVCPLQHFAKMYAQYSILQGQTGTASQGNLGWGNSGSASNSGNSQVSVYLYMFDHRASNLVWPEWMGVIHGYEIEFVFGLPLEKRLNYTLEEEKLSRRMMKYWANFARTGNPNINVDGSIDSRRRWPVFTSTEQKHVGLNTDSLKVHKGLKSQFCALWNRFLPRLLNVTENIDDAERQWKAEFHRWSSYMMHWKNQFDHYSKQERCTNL

O=S(=O)(Nc1cccc(I)c1)c1cccc2cccnc12 [a1, N-(3-Iodophenyl)quinoline-8-sulfonamide]
IC50 (AChE [1]): 1.11 ± 0.57 µM | fold decrease in potency against AChE (AChE [1]): ~2 fold

Cc1ccc(F)c(CNS(=O)(=O)c2cccc3cccnc23)c1 [a2, N-(2-Fluoro-5-methylphenzyl)quinoline-8-sulfonamide]
fold decrease in activity against MAO-A (MAO-A [2]): 4 fold | fold decrease in potency against AChE (AChE [1]): ~3 fold | IC50 (AChE [1]; read-out: IC50 AChE): 2.58 ± 0.97 µM | fold reduction in potency against MAO-B (MAO-B [3]): 4 fold

O=S(=O)(NCc1ccc(Cl)cc1)c1cccc2cccnc12 [a4, N-(4-Chlorobenzyl)quinoline-8-sulfonamide]
IC50 (AChE [1]): 2.18 ± 1.17 µM | fold decrease in potency against AChE (AChE [1]): ~4 fold

O=S(=O)(NCc1cccc(Cl)c1)c1cccc2cccnc12 [a5, N-(3-Chlorobenzyl)quinoline-8-sulfonamide]
mode of inhibition toward MAO-A (MAO-A [4]): competitive inhibition | IC50 (AChE [1]): 1.95 ± 1.07 µM | fold decrease in potency against AChE (AChE [1]): ~4 fold | IC50 (BChE [5]): 2.84 ± 1.07 µM | fold decrease in activity against BChE (BChE [5]): ~2 fold

O=S(=O)(Nc1ccc(I)cc1)c1cccc2cccnc12 [a8, N-(4-Iodophenyl)quinoline-8-sulfonamide]
IC50 (AChE [1]): 1.15 ± 0.72 µM | fold decrease in potency against AChE (AChE [1]): ~2 fold

N#Cc1ccc(NS(=O)(=O)c2cccc3cccnc23)cc1 [a9, N-(4-Cyanophenyl)quinoline-8-sulfonamide]
IC50 (AChE [1]): 3.78 ± 0.92 µM | fold decrease in potency against AChE (AChE [1]): 7 fold

O=S(=O)(NCC1CCCCC1)c1cccc2cccnc12 [a10, N-(Cyclohexylmethyl)quinoline-8-sulfonamide]
IC50 (AChE [1]): 1.36 ± 0.77 µM

O=S(=O)(NCc1cc(F)cc(C(F)(F)F)c1)c1cccc2cccnc12 [a14, N-(3-Fluoro-5-(trifluoromethyl)benzyl)quinoline-8-sulfonamide]
IC50 (AChE [1]; read-out: IC50 AChE): 3.06 ± 0.77 µM | IC50 (BChE [5]; [9]): 1.18 ± 0.57 µM

O=S(=O)(NCc1ccc(Cl)cc1Cl)c1cccc2cccnc12 [a15, N-(2,4-Dichlorobenzyl)-8-quinolinesulfonamide]
IC50 (AChE [1]): 1.4 ± 0.54 µM | fold decrease in potency against AChE (AChE [1]): ~2.5 fold

O=S(=O)(NCc1ccccc1Cl)c1cccc2cccnc12 [a16, N-(2-Chlorobenzyl)-8-quinolinesulfonamide]
IC50 (AChE [1]): 1.92 ± 0.87 µM | fold decrease in potency against AChE (AChE [1]): ~4 fold

COc1ccc(CNS(=O)(=O)c2cccc3cccnc23)cc1 [a18, N-(4-Methoxybenzyl)-8-quinolinesulfonamide]
IC50 (AChE [1]): 1.01 ± 0.61 µM | fold decrease in potency against AChE (AChE [1]): 2 fold | IC50 (BChE [5]): 2.78 ± 0.92 µM | fold decrease in activity against BChE (BChE [5]): 2 fold

N-(2,3-Dihydro-1H-benzo[d]imidazole-2-yl)quinoline-8-sulfonamide [a7]
IC50 (AChE [1]; read-out: IC50 AChE): 1.73 ± 0.87 µM | fold reduction in potency against MAO-B (MAO-B [3]): 2 fold

N-(2,6-Difluorophenyl)quinoline-8-sulfonamide [a3]
fold decrease in potency against AChE (AChE [1]): ~3 fold | IC50 (AChE [1]; read-out: IC50 AChE): 1.01 ± 0.59 µM | fold reduction in potency against MAO-B (MAO-B [3]): 4 fold

N-(2-Fluorobenzyl)quinoline-8-sulfonamide [a13]
fold decrease in activity against MAO-A (MAO-A [2]): 2 fold | fold decrease in potency against AChE (AChE [1]): 3 fold | IC50 (AChE [1]; read-out: IC50 AChE): 1.65 ± 0.97 µM | fold reduction in potency against MAO-B (MAO-B [3]): 3 fold

N-(2-Hydroxyphenyl)quinoline-8-sulfonamide [a11]
IC50 (AChE [1]; read-out: IC50 AChE): 0.58 ± 0.05 µM | fold reduction in potency against MAO-B (MAO-B [3]): 2 fold | mode of inhibition toward AChE (AChE [6]): competitive inhibition

N-(3,4-Dimethoxybenzyl)quinoline-8-sulfonamide [a6]
mode of inhibition toward BChE (BChE [7]): competitive inhibition | fold decrease in potency against AChE (AChE [1]): 2 fold | IC50 (AChE [1]; read-out: IC50 AChE): 1.11 ± 0.47 µM | IC50 (BChE [5]; [9]): 1.1 ± 0.89 µM

N-(4-Florobenzyl)-8-quinolinesulfonamide [a12]
fold decrease in activity against MAO-A (MAO-A [2]): 2 fold | IC50 (AChE [1]; read-out: IC50 AChE): 2.65 ± 0.97 µM | IC50 (BChE [5]; [9]): 1.16 ± 0.77 µM | mode of inhibition toward MAO-B (MAO-B [8]): competitive inhibition
